Test results taken from US10577361B2, “Dopamine D3 receptor antagonists having a morpholine moiety” (Indivior UK Limited, priority 2015, dated 2020).
Structures can show the parent of a compound that is named as a salt.

Columns and labels:
[1] = biological target: human dopamine type 3 receptor (hD3) (Homo sapiens (Human), UniProt P35462); assay: [3H]-Spiperone binding assay at hD3 recombinant receptor (CHO-hD3 membranes); conditions: pKi only estimated to be accurate to about ±0.3-0.5
Procedure: [^3H]-Spiperone Binding Assay at hD3 and hD4 recombinant receptors CHO cells transiently transfected with human dopamine type 3 or 4 receptors (CHO-hD3 or CHO-hD4, respectively), were re-suspended in 20 mM HEPES, 2 mM EDTA (pH 7.4), homogenised and centrifuged at 40,000 g (20 min, 4° C.). After re-suspension, homogenization and centrifugation as above, the final pellet was re-suspended in 20 mM HEPES, 100 mM NaCl, 10 mM MgCl2, 1 mM EDTA (pH 7.4) and aliquots were kept at −80° C. [^3H]-Spiperone Binding experiments were performed in 96 deep-well polypropylene plates in 50 mM Tris/HCl, 120 mM NaCl, 5 mM KCl, 5 mM MgCl2 (pH 7.4). Compounds of invention were serially diluted in DMSO at 100 fold final concentrations in the assay (1% DMSO final in the assay). Displacement was performed in the presence of 0.3 nM [^3H]-Spiperone. The reaction was initiated by the addition of membrane suspension (4 μg and 12 μg of protein for CHO-hD3- and CHO-hD4 membranes, respectively) and lasted for 90 or 100 min (for hD3 or hD4 membranes, respectively) at 23° C. in a final volume of 500 μl. Non specific binding (NSB) was determined in the presence of 1 μM Spiperone. The binding reaction was stopped by rapid filtration through GF/B filterplates pre-soaked in 0.5% polyetylenimmine (PEI) using a Packard cell harvester. After washing with ice-cold 0.9% NaCl, the plate was left to dry before the addition of Microscint 20 ([…], PerkinElmer). Radioactivity was counted with a TopCount (PerkinElmer). Data were analysed by non-linear regression analysis using GraphPad Prism 5.0 (GraphPad Software). Saturation binding experiments were performed similar to the competition binding experiments using a radioligand concentrations ranging from 0.015 to 4.0 nM. […] Characterization of the human dopamine D3 receptor expressed in transfected cell lines.

[2] = biological target: T1, human dopamine receptor type 2, long variant (hD2L) (Homo sapiens (Human), UniProt P14416); assay: Functional calcium assay at hD2 recombinant receptor (CHO-Gα16-hD2L cells, FLIPR); type: cell-based; conditions: functional pKi at hD2, dopamine EC80 challenge; for Ki: read-out: D2 fp Ki (converted)
Procedure: Functional Calcium Assay at hD2 Recombinant Receptor CHO cells stably expressing human dopamine receptor type 2, long variant (hD2L), coupled to Gα16 protein (CHO-Gα16-hD2L) were seeded into black walled clear-base 384-well plates at a density of 8,000 cells per well and grown overnight at 37° C. […] Compounds of invention were dissolved in DMSO and 200-fold diluted with assay buffer plus 0.01% Pluronic F-127. […] The fluorescence before compound addition (baseline) and before and after addition of agonist challenge was monitored.

[3] = biological target: T1, human dopamine receptor type 2, long variant (hD2L); assay: [3H]-Spiperone binding assay at hD2 recombinant receptor (CHO-Gα16-hD2L membranes)
Procedure: [^3H]-Spiperone Binding Assay at hD2 Recombinant Receptor CHO cells stably expressing human dopamine receptor type 2, long variant (hD2L), coupled to Gα16 protein (CHO-Gα16-hD2L) were re-suspended in 20 mM HEPES, 2 mM EDTA (pH 7.4), homogenised and centrifuged at 40,000 g (20 min, 4° C.). After re-suspension, homogenization and centrifugation as above, the final pellet was re-suspended in 20 mM HEPES, 100 mM NaCl, 10 mM MgCl2, 1 mM EDTA (pH 7.4) and aliquots were kept at −80° C. [^3H]-Spiperone Binding experiments were performed in 96 deep-well polypropylene plates in 50 mM Tris/HCl, 120 mM NaCl, 5 mM KCl, 5 mM MgCl2 (pH 7.4). […] Displacement was performed in the presence of 0.08 nM [^3H]-Spiperone. The reaction was initiated by the addition of membrane suspension (2 μg of protein for CHO-hD2 membranes) and lasted for 120 min at 23° C. in a final volume of 1000 μl. Non specific binding (NSB) was determined in the presence of 0.1 μM Spiperone. The binding reaction was stopped by rapid filtration through GF/B filterplates pre-soaked in 0.5% polyetylenimmine (PEI) using a Packard cell harvester. After washing with ice-cold 0.9% NaCl, the plate was left to dry before the addition of Microscint 20 (50 μl/well, PerkinElmer). Radioactivity was counted with a TopCount (PerkinElmer). […] Saturation binding experiments were performed similar to the competition binding experiments using a radioligand concentrations ranging from 0.011 to 3.0 nM. […] Is Clozapine selective for the dopamine D4 receptor? […] Real-time analysis of dopamine: antagonist interactions at recombinant human D2long receptor upon modulation of its activation state. Brit. J.

human dopamine type 3 receptor (hD3), sequence (P35462 whole entry): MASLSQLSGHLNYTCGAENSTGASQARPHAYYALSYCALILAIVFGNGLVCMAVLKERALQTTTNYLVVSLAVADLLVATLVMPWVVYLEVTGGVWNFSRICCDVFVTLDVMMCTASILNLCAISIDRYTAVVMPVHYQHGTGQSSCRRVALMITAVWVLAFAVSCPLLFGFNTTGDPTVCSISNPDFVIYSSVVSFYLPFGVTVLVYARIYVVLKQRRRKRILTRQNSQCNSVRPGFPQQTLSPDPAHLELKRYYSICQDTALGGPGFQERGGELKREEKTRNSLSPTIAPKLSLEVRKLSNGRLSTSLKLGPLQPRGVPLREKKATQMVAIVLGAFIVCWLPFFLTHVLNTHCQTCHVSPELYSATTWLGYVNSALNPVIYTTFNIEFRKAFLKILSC

Compound | D3 p Ki [1] | D2 fp Ki [2] | D2 p Ki [3] | Ki ([3]; read-out: D2 p Ki (converted)) | Ki [2]
Cc1ncoc1-c1nnc(SCCCN2CCOC(c3ccc(F)cc3)C2)n1C (single isomer, unassigned) [Example 3, (2R or 2S)-2-(4-fluorophenyl)-4-(3-({[4-methyl-5-(4-methyl-1,3-oxazol-5-yl)-4H-1,2,4-triazol-3-yl]sulfanyl}propyl)morpholine] | 6.56 | <5 | – | – | –
Cc1ncoc1-c1nnc(SCCCCN2CCO[C@H](c3ccc(C(F)(F)F)cc3)C2)n1C (single isomer, unassigned) [Example 6, (2R or 2S)-4-(4-{[4-methyl-5-(4-methyl-1,3-oxazol-5-yl)-4H-1,2,4-triazol-3-yl]sulfanyl}butyl)-2-[4-(trifluoromethyl)phenyl]morpholine] | 7.11 | <5 | – | – | –
Cc1ncoc1-c1nnc(SCCCN2CCO[C@H](c3ccc(C(F)(F)F)cc3)C2)n1C (single isomer, unassigned) [Example 9, (2R or 2S)-4-(3-{[4-methyl-5-(4-methyl-1,3-oxazol-5-yl)-4H-1,2,4-triazol-3-yl]sulfanyl)}propyl)-2-[4-(trifluoromethyl)phenyl]morpholine] | – | 5.64 | 5.36 | – | –
Cc1ncoc1-c1nnc(SCCCN2CCO[C@H](c3ccc(C(F)(F)F)cc3)C2)n1C (single isomer, unassigned) [Example 10, (2R or 2S)-4-(3-({[4-methyl-5-(4-methyl-1,3-oxazol-5-yl)-4H-1,2,4-triazol-3-yl]sulfanyl}propyl)-2-[4-(trifluoromethyl)phenyl]morpholine hydrochloride] | – | – | – | 11.7 µM | > 10 µM
Cc1ncoc1-c1nnc(SCCCN2CCOC(c3ccc(F)cc3)C2)n1C (centres unmarked) [Example 1] | 6.37 | – | – | – | > 10 µM
Cc1ncoc1-c1nnc(SCCCCN2CCOC(c3ccc(C(F)(F)F)cc3)C2)n1C (centres unmarked) [Example 4, 4-(4-{[4-methyl-5-(4-methyl-1,3-oxazol-5-yl)-4H-1,2,4-triazol-3-yl]sulfanyl}butyl)-2-[4-(trifluoromethyl)phenyl]morpholine] | 7.05 | – | – | – | > 10 µM
Cn1c(SCCCN2CCOC(c3ccc(C(F)(F)F)cc3)C2)nnc1-c1ccc(C(N)=O)cn1 (centres unmarked) [Example 22, 6-{4-methyl-5-[(3-{2-[4-(trifluoromethyl)phenyl]morpholin-4-yl}propyl)sulfanyl]-4H-1,2,4-triazol-3-yl}pyridine-3-carboxamide] | 7 | – | 4.79 | – | –
Cn1c(SCCCN2CCOC(c3ccc(C(F)(F)F)cc3)C2)nnc1-c1cccc(C(N)=O)c1 (centres unmarked) [Example 23, 3-{4-methyl-5-[(3-{2-[4-(trifluoromethyl)phenyl]morpholin-4-yl}propyl)sulfanyl]-4H-1,2,4-triazol-3-yl}benzamide] | 6.53 | – | 4.82 | – | –
Cn1cccc1-c1nnc(SCCCN2CCOC(c3ccc(C(F)(F)F)cc3)C2)n1C (centres unmarked) [Example 24] | 6.9 | – | 5.18 | – | –
Cn1c(SCCCN2CCOC(c3ccc(C(F)(F)F)cc3)C2)nnc1C1CCCCC1 (centres unmarked) [Example 25, 4-{3-[(5-cyclohexyl-4-methyl-4H-1,2,4-triazol-3-yl)sulfanyl]propyl}-2-[4-(trifluoromethyl)phenyl]morpholine] | 7.36 | – | 5.05 | – | –
Cn1c(SCCCN2CCOC(c3ccc(C(F)(F)F)cc3)C2)nnc1-c1nccs1 (centres unmarked) [Example 26, 4-(3-{[4-methyl-5-(1,3-thiazol-2-yl)-4H-1,2,4-triazol-3-yl]sulfanyl}propyl)-2-[4-(trifluoromethyl)phenyl]morpholine] | 6.55 | – | 5.14 | – | –
Cn1nccc1-c1nnc(SCCCN2CCOC(c3ccc(C(F)(F)F)cc3)C2)n1C (centres unmarked) [Example 27, 4-(3-{[4-methyl-5-(1-methyl-1H-pyrazol-5-yl)-4H-1,2,4-triazol-3-yl]sulfanyl}propyl)-2-[4-(trifluoromethyl)phenyl]morpholine] | 6.16 | – | <5 | – | –
Cn1c(SCCCN2CCOC(c3ccc(C(F)(F)F)cc3)C2)nnc1-c1ccsc1 (centres unmarked) [Example 28] | 6.95 | – | 5.06 | – | –
Cn1c(SCCCN2CCOC(c3ccc(C(F)(F)F)cc3)C2)nnc1-c1ccc(-c2nnco2)cc1 (centres unmarked) [Example 29, 4-[3-({4-methyl-5-[4-(1,3,4-oxadiazol-2-yl)phenyl]-4H-1,2,4-triazol-3-yl}sulfanyl)propyl]-2-[4-(trifluoromethyl)phenyl]morpholine] | 7.79 | – | 4.91 | – | –
Cc1nc(-c2ccc(-c3nnc(SCCCN4CCOC(c5ccc(C(F)(F)F)cc5)C4)n3C)cc2)no1 (centres unmarked) [Example 30, 4-[3-({4-methyl-5-[4-(5-methyl-1,2,4-oxadiazol-3-yl)phenyl]-4H-1,2,4-triazol-3-yl}sulfanyl)propyl]-2-[4-(trifluoromethyl)phenyl]morpholine] | 7.63 | – | <5 | – | –
Cn1c(SCCCN2CCOC(c3ccc(C(F)(F)F)cc3)C2)nnc1-c1ccc(C#N)cc1 (centres unmarked) [Example 31, 4-{4-methyl-5-[(3-{2-[4-(trifluoromethyl)phenyl]morpholin-4-yl}propyl)sulfanyl]-4H-1,2,4-triazol-3-yl}benzonitrile] | 6.97 | – | 4.95 | – | –
CC(=O)c1ccc(-c2nnc(SCCCN3CCOC(c4ccc(C(F)(F)F)cc4)C3)n2C)cc1 (centres unmarked) [Example 32, 1-(4-{4-methyl-5-[(3-{2-[4-(trifluoromethyl)phenyl]morpholine-4-yl}propyl)sulfanyl]-4H-1,2,4-triazol-3-yl}phenyl)ethan-1-one] | 7.18 | – | 4.65 | – | –
Cn1c(SCCCN2CCOC(c3ccc(C(F)(F)F)cc3)C2)nnc1-c1ccc(S(N)(=O)=O)cc1 (centres unmarked) [Example 33, 4-{4-methyl-5-[(3-{2-[4-(trifluoromethyl)phenyl]morpholine-4-yl}propyl)sulfanyl]-4H-1,2,4-triazol-3-yl}benzene-1-sulfonamide] | 6.87 | – | <4.5 | – | –
Cc1ncoc1-c1nnc(SCCCN2CCOC(c3ccc(C(F)(F)F)cc3F)C2)n1C (centres unmarked) [Example 34] | 6.71 | – | 4.96 | – | –
Cc1ccc(C2CN(CCCSc3nnc(-c4ccc(-c5noc(C)n5)cc4)n3C)CCO2)cc1 (centres unmarked) [Example 37, 4-[3-({4-methyl-5-[4-(5-methyl-1,2,4-oxadiazol-3-yl)phenyl]-4H-1,2,4-triazol-3-yl}sulfanyl)propyl]-2-(4-methylphenyl)morpholine] | 7.07 | – | 4.50 | – | 31.6 µM
